Laboratory results as given in PMC10447463, “Data-mining unveils structure–property–activity correlation of viral infectivity enhancing self-assembling peptides” (Nature Communications, 2023).
Like-named read-outs stand apart in the source and are kept apart here.

Tests used:
[1] = Turbidity, derived count rate of scattered light; format: physicochemical; details: for Count Rate / kcps: derived count rate of scattered light at 633 nm, 173°, from zeta-potential measurement, 0.1 mg/mL in 1 mM KCl after 1 d at 1 mg/mL in PBS, turbidity / microscopic aggregation, mean of triplicate
Procedure, shortened: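 One-day room-temperature aggregation at 1 mg/mL in PBS (pH 7.4) preceded measurement; samples then went into 1 mM KCl. Triplicates per sample, two independent experiments averaged.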

[2] = test system: HIV-1 infection of TZM-bl cells; test: HIV-1 infectivity enhancement assay, β-galactosidase luminescence; format: cell-based; details: for Rel-EFC: infection relative to EF-C (QCKIKQIINMWQ = 1); for Log10 Infection Rel EFC: log10 of infection relative to EF-C; for Log Infectivity: Log10 infection relative to EF-C, TZM-bl cells, asymmetric std dev errors; for Log10 Infection Rel EF-C: HIV-1 infection of TZM-bl cells; for Abs. Inf.: absolute infection signal, HIV-1 on TZM-bl cells, β-galactosidase luminescence; for Log10 Inf. rel. to EF-C: log10 of HIV-1 infection of TZM-bl cells relative to EF-C (EF-C = 0); for Log10 of Rel to EFC (Feb2021): Log10 of infection relative to EF-C, all peptides of FigS16
[3] = format: physicochemical; design: key to Fibril / Fibril Formation / TEM 2cat / Fibril: 1 = fibrils present; 0 non-fibrillar structures; details: for Fibril / Fibril Formation: 1 mg/mL, uranyl acetate stain, qualitative
[4] = Log10 of derived count rate of scattered light (turbidity)
[5] = turbidity, Log10 of derived count rate of scattered light, Figure 3A source data
[6] = turbidity, log10 of derived count rate of scattered light
[7] = Fig. S7 panel A (plotted against β-sheet content)
[8] = Log10 of infection rate relative to EF-C, Figure 3A source data
[9] = infection rate relative to EF-C, log10, data of Figure 2D
[10] = infection rate relative to EF-C, log10, source data of Figure 2C
[11] = FigS12 panel A, fibril category by TEM
[12] = TEM, 1 = fibrils present, 0 = non-fibrillar
[13] = TEM, 1 = fibrils present, 0 = non-fibrillar structures
[14] = category: fibrils present or non-fibrillar
[15] = Fig. S7 panel B (plotted against CR), rounded to two decimals
[16] = logarithm of count rate in kcps

| Substance | Log10 Count Rate [1, 4] | Count Rate / kcps [1] | Log10 Count Rate [1, 5] | Log10 Count Rate [1, 6] | Rel-EFC ([2]; 1.3 µM peptide) | Log10 Infection Rel EFC ([2]; 1.3 µM peptide) | Log Infectivity [2, 7] | Log10 Infection Rel EF-C [2, 8] | Log10 Infection Rel EF-C [2, 9] | Log10 Infection Rel EF-C [2, 10] | Abs. Inf. [2] | Log10 Inf. rel. to EF-C [2] | TEM 2cat ([3]; Fig S10 panel D) | TEM 2cat [3, 11] | Fibril ([3]; FigS12 panel B, TEM) | Fibril / Fibril Formation ([3]; TEM) | Fibril [3, 12] | Fibril [3, 13] | Log10 of Rel to EFC (Feb2021) [2] | TEM 2cat [3, 14] | further results |
| --- | --- | --- | --- | --- | --- | --- | --- | --- | --- | --- | --- | --- | --- | --- | --- | --- | --- | --- | --- | --- | --- |
| NMWQKAKAQA | 2.384 | 242 kcps | 2.384 | 2.384 | 0,04 | -1,38 | -1.376 | -1.38 | -1.376 | -1.376 | 1137 | -1.376 | 1 | 1 | 1 | 1 | 1 | 1 |  |  |  |
| KIKIQINMAQ | 3.768 | 5859 kcps | 3.768 | 3.768 | 0,21 | -0,67 | -0.6722 | -0.67 | -0.6722 | -0.6722 |  | -0.6722 | 1 |  |  | 1 | 1 | 1 | -0.67 | 1 |  |
| RGECKFKFQF | 2.341 | 219 kcps | 2.341 | 2.341 | 0,33 | -0,48 | -0.4776 | -0.48 | -0.4776 | -0.4776 | 7411 | -0.4776 | 1 |  |  | 1 | 1 | 1 | -0.48 | 1 | Log Infectivity [2, 15]: -0.48; Fibril ([3]; Fig S10 panel E): 1 |
| CKYKYQY | 3.026 | 1061 kcps | 3.026 |  | 0,04 | -1,39 | -1.3903 | -1.39 | -1.3903 | -1.3903 |  |  | 0 | 0 | 0 | 0 | 0 | 0 |  |  | Log10 Count Rate ([1]; log10 of derived count rate of scattered light (turbidity)): 3.026 |
| KVKVKVQV | 1.975 | 94 kcps | 1.975 | 1.975 | 0,02 | -1,76 | -1.763 | -1.76 | -1.763 | -1.763 | 466.7 | -1.763 | 0 | 0 | 0 | 0 | 0 | 0 |  |  |  |
| KAKAQANMWQ | 1.749 | 56 kcps | 1.749 | 1.749 | 0,01 | -2,15 | -2.146 | -2.15 | -2.146 | -2.146 | 193.3 | -2.146 | 0 | 0 | 0 | 0 | 0 | 0 |  |  | Log10 Count Rate [1, 16]: 1.7; Log Infectivity [2, 15]: -2.15; Inf. rel. EF-C ([2]; HIV-1 infection relative to EF-C, Fig 23 plot, panels A and B, mean of 3 values): 0.008469; Inf. rel. EF-C ([2]; HIV-1 infection relative to EF-C, Fig 23 plot, single data point, replicate 1): 0.01122; Inf. rel. EF-C ([2]; HIV-1 infection relative to EF-C, Fig 23 plot, single data point, replicate 2): 0.003015; Inf. rel. EF-C ([2]; HIV-1 infection relative to EF-C, Fig 23 plot, single data point, replicate 3): 0.01117; Abs. Inf. / RLU s-1 ([2]; absolute infection rate, peptide 1.3 µM on cells, virus preincubated 10 min with fibrils, read 3 days post infection, mean of triplicate): 193 RLU s-1; Inf. rel. EF-C ([2]; n-fold infection vs virus only, relative to that of EF-C, 1.3 µM peptide): 0.01; Fibril ([3]; Fig S10 panel E): 0 |
| CKFKFQF | 3.725 | 5303 kcps | 3.725 | 3.725 | 1,23 | 0,09 | 0.09083 | 0.09 | 0.09083 | 0.09083 | 20066.66667 | 0.09083 | 1 |  |  | 1 | 1 | 1 | 0.09 | 1 | Count Rate ([1]; T0, mean of n = 3): 719.1 kcps; Count Rate ([1]; T0, replicate 2): 718.1 kcps; Count Rate ([1]; T0, replicate 3): 875.1 kcps; Count Rate ([1]; T2m, mean of n = 3): 801.2 kcps; Count Rate ([1]; T2m, replicate 1): 2097 kcps; Count Rate ([1]; T2m, replicate 2): 115.2 kcps; Count Rate ([1]; T2m, replicate 3): 191.5 kcps; Count Rate ([1]; T1d, mean of n = 3): 1387.9 kcps; Count Rate ([1]; T1d, replicate 1): 43.1 kcps; Count Rate ([1]; T1d, replicate 2): 2192.2 kcps; Count Rate ([1]; T1d, replicate 3): 1928.4 kcps; Log10 Count Rate [1, 16]: 3.725; Log Infectivity [2, 15]: 0.09; Abs. Infection at 0.26 µM ([2]; peptide 0.26 µM, mean of n = 3, Figure 4A): 5684; Abs. Infection at 1.3 µM ([2]; peptide 1.3 µM, mean of n = 3, Figure 4A): 20066.66667; Fibril ([3]; Fig S10 panel E): 1 |
| RGEKIKIQINM | 2.774 | 595 kcps | 2.774 | 2.774 | 0,24 | -0,61 | -0.6134 | -0.61 | -0.6134 | -0.6134 | 7838 | -0.6134 | 1 |  |  | 1 | 1 | 1 | -0.61 | 1 | Log Infectivity [2, 15]: -0.61; Fibril ([3]; Fig S10 panel E): 1 |
